Source: patent publication US20050101542A1, “Combination therapy for controlling appetites” (Regents of the University of California, priority 2002, published 2005)
Entries after “also recorded” stand apart in the source; their conditions may differ. Where two headings read alike, the source gives them in different places.

Columns and labels:
[1] = Acute feeding experiments in free-feeding mice (C57BL/6J, wild-type, PPARα-null); type: in vivo, mouse; settings: for food intake in C57BL/6J mice: i.p., Wy-14643 40, GW7647 20, clofibrate 25-100, GW501516 1-10, ciglitazone 15 mg kg^−1; for feeding in PPARα-deficient mice: OEA 10, Wy-14643 40, d-fenfluramine 4 mg-kg^−1, CCK-8 25 μg-kg^−1, i.p.; for meal pattern analysis (eating latency, meal size, post-meal interval): C57BL/6J mice
Experimental: Acute experiments. Drugs or appropriate vehicles (saline, for CCK-8 and d-fenfluramine; dimethylsulfoxide/saline, 70/30, for all other agents; 4 ml-kg^−1; i.p.) were administered at 5:00-5:30 PM to free-feeding mice, which were habituated to the experimental setting.

[2] = Food intake in capsaicin-treated (sensory deafferented) rats, Example 2; type: in vivo, rat; settings: OEA 10 mg per kg i.p.
Experimental: FAE were dissolved in dimethylsulphoxide (DMSO) and administered in 70% DMSO in sterile saline (acute treatments) Or 5% Tween 80/5% propylenglycol in sterile saline (subchronic treatments) (1 ml per kg, i.p.). Capsaicin was administered in 10% Tween 80/10% ethanol/80% saline; SR141716A, SR144528, CCK-8 and CP-93129 in 5% Tween 80/5% propylenglycol/90% saline (1 ml per kg, i.p.).

[3] = Capsaicin sensory deafferentation and feeding, Example 8; type: in vivo, rat; settings: CCK-8 10 μg/kg, CP 93129 1, WIN 55,212-2 2, anandamide 2, SR141716A 3 mg/kg, i.p.
Experimental: Capsaicin was administered subcutaneously (12.5 mg/ml, Kaneko, et al., Am. J. Physiol., 275:G1056-G1062 (1998)) in rats anesthetized with ethyl ether. The total dose of capsaicin (125 mg/kg) was divided into three injections (25 mg/kg in the morning and 50 mg/kg in the afternoon of the first day, 50 mg/kg on the 2nd day). Control rats received vehicle injections. […] Water intake (in ml/4 hr) was: vehicle 13.6±1.4; capsaicin rats 24.0±1.9, P<0.01 (n=12).
The can was retired and intake was recorded.

[4] = Food intake studies in food-deprived or partially satiated rats (i.p. or i.c.v.), Example 8; settings: for food intake in partially satiated rats, systemic (i.p.) administration: 24 h food-deprived, allowed to eat 60 min before drug; for food intake in 24 h food-deprived rats, systemic (i.p.) administration: anandamide or WIN 55,212-2 0.1-2 mg/kg
Experimental: (§4) Drugs were administered by i.p. injection 15 min prior to food presentation in a volume of 1 ml/kg. For i.c.v. administration the obturator was removed from the guide cannula and an 8-mm injector (30-gauge stainless steel tubing) that was connected to 70 cm of calibrated polyethylene-10 tubing was lowered into the ventricle. The tubing was then raised until flow began and 5 μl of drug solution were infused over a 30-60 s period. The injector was left in the guide cannula for additional 30 s and then removed. The stylet was immediately replaced. Animals were tested 5 min after injections. The i.c.v. cannula placements were evaluated after each experiment by dye injection. Only those rats with proper i.c.v. placements were included in the data analysis.
(§5) The animals were then food-deprived for 24 h, with free access to water. 15 min after drug administration, the animals were returned to their home cage, where a can with a measured amount of food (usually 30-40 g) a bottle containing 250 ml of fresh water were placed. Food pellets and food spillage were weighed at 60,120 and 240 min after starting the test, and the amount of food eaten was recorded. At the end of the test, the amount of water consumed was also measured. For partial satiation of animals, 24 h food-deprived rats were allowed to eat from the can during 1 h. The can was retired and intake was recorded. 15 min after drug injections, the food was again presented, and the amount consumed was recorded hourly for the following 4 h.

[5] = Open field test; type: in vivo, rat
Experimental: Rats were habituated to the field for 10 min the day before testing. On the experimental day, the animals were placed in the center of the field and locomotor activity (number of lines crossed) and exploratory behavior (number of rearings and time spent in the center of the field) were scored for 5 min. All the experiments were performed 60 min after drug injections, and behavior was scored by trained observers blind to experimental conditions.

[6] = Food intake in vagotomized or capsaicin-treated rats, Example 3; type: in vivo, rat; settings: for food intake after vagotomy or capsaicin treatment: rats, OEA 10, Wy-14643 40 mg kg^−1 i.p.; for food intake 30 min / food intake 60 min / food intake 120 min / food intake 240 min: 24-h food-deprived, Wy-14643 40 mg kg^−1 i.p.
[7] = Acute food intake in 24-h food-deprived rats, i.p. dosing; type: in vivo, rat; settings: 24-h food-deprived rats, i.p.
Experimental: Feeding experiments. Acute experiments. Food intake was measured in 24-h food-deprived rats (Navarro, et al., J. Neurochem., 67:1982-1991 (1996)), administering drugs 15 min before food presentation. Subchronic experiments. Ad libitum fed rats received vehicle injections for three days. On day four, the animals were divided in two equal groups and gave them daily injections of vehicle or OEA (5 mg per kg at 1900 h) for 7 consecutive days, while measuring body weight, food intake and water intake.
The effects of systemically administered OEA or an OEA-like compound or OEA-like modulator on food intake in rats can be assessed using a 24 h fast. […] To define the selectivity of this response, various OEA analogs were evaluated for their ability to produce hypophagia.

[8] = test system: Soleus muscle; assay: [14C]oleate oxidation to CO2 in soleus muscle; type: cell-based, rat
Description: This example illustrates the effect of OEA on fat metabolism and methods for studying the same. Oleoylethanolamide (OEA) decreases body weight not only by suppressing appetite, but also by possibly enhancing body fat catabolism. The effects of OEA on fatty acid oxidation in major body-fat burning tissues (soleus muscle, liver, cultured cardiac myocytes and astrocytes) was examined. […] In addition, OEA induces a significant mobilization of triacylglycerol stores from primary white adipose tissue cells. Table 4 details the methods and effects of OEA on fatty acid oxidation in these cells. Structure-activity relationship experiments provide evidence that the effect of OEA on skeletal muscle fatty acid oxidation is specific (FIG. 8).

[9] = target: T1, human PPARα (Homo sapiens, UniProt Q07869); assay: GAL4 chimeric receptor transactivation assay in HeLa cells, PPARα; type: cell-based; settings: for PPARα activation: HeLa transactivation assay
T1 construct: expressed in transfected cells; host or cells: HeLa (clonal reporter line HLR, stably transfected with pFA-PPARα)
T1 sequence (Q07869 239-466 limits assumed): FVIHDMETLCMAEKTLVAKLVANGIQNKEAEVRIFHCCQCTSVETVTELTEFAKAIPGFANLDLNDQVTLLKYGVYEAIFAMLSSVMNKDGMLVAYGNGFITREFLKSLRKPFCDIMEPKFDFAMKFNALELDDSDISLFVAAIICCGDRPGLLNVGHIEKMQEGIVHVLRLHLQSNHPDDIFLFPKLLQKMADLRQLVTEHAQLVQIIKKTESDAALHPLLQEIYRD
Experimental: Eighteen hours following transfection, the culture media was replaced with supplemented DMEM containing hygromycin (100 μg-ml^−1, Calbiochem). After 4 weeks in culture, the surviving clones were isolated and analyzed by luciferase assay. […] The cells were cultured in supplemented DMEM containing hygromycin and G418. For transactivation assays, cells were seeded in 6-well plates (50,000 cells per well) and incubated for 7 hours in supplemented DMEM containing hygromycin and G418, plus appropriate concentrations of test compounds. Dual-luciferase reporter assay system (Promega) and an MLX Microtiter® plate luminometer (Dynex) were used to determine luciferase activity in cell lysates.

[10] = rat, in vivo
Experimental: as §4, §5

[11] = test system: PPAR-α-regulated genes; assay: Real time quantitative PCR of gene expression in mouse intestine and liver; type: in vivo; settings: for expression of PPAR-α-regulated genes (PPAR-α, FAT/CD36, FATP1): jejunum of wild-type mice, OEA or oleic acid 10, Wy-14643 30 mg kg^−1 i.p.
Experimental: (§1) Tissues were stored in RnaLater™ (Ambion), extracted total RNA with TRIzol™ (Invitrogen) and quantified it with Ribogreen™ (Molecular Probes). cDNA was synthesized by using SuperscriptII RNase H-reverse transcriptase (Invitrogen).
(§2) Reverse transcription of total RNA (2 μg) was performed using Oligo(dT)12-18 primer (0.2 μg) for 50 min at 42° C. Real Time Quantitative (RTQ) PCR was conducted using an ABI PRISM 7700 sequence detection system (Applied Biosystems). Primer/probe sets were designed using the Primer Express™ software and gene sequences available from the Genebank™ database. Primers and fluorogenic probes were synthesized by TIB (Adelphia). The primer/probe sequences for the mouse genes were:
(§3) RNA levels were normalized by using glyceraldehyde 3-phosphate dehydrogenase (GAPDH) as an internal standard. mRNA levels were measured by generating six-point serial standard curves using mouse total RNA. Estimates of relative mRNA abundance (in arbitrary units) were made by using the CT value (Schmittgen et al., 2000). Relative quantifications of RNAs of interest were made by using the 2^ΔCT formula, in which ΔCT was calculated by subtracting the CT value for GAPDH from the CT value for the gene of interest. This formula was validated for each primer/probe set by using six-point serial standard curves.

[12] = test system: iNOS; assay: Transrepression of iNOS expression in mouse jejunum; type: in vivo; settings: jejunum of C57BL/6J mice; OEA or oleic acid 10, Wy-14643 30 mg kg^−1 i.p.
Experimental: as §1, §2, §3

## CCOC(=O)C(C)(C)Oc1ccc(Cl)cc1 [clofibrate, 2-(4-chlorophenoxy)-2-methylpropanoic acid, ethyl ester]
[1]
  food intake in C57BL/6J mice: did not

## CCK-8
[2]
  feeding response in capsaicin-treated rats: failed to respond
[3]
  effect of capsaicin treatment on the drug's feeding response: abolished the anorexic response; also recorded: abolished the anorexic effect
[1]
  feeding in PPARα-deficient mice: responded normally

## Cc1c(C(=O)NN2CCCCC2)nn(-c2ccc(Cl)cc2Cl)c1-c1ccc(Cl)cc1 [SR141716A, N-piperidino-5-(4-chlorophenyl)-1-(2,4-dichlorophenyl)-4-methylpyrazole-3-carboxamide]
[3]
  effect of capsaicin treatment on the drug's feeding response: loss and abolishes the reduction of food intake
[4]
  food intake in partially satiated rats, systemic (i.p.) administration: dose-dependent reduction of food intake
  food intake in 24 h food-deprived rats, systemic (i.p.) administration: dose-dependent reduction of food intake; also recorded: reduced food intake
  food intake after central (i.c.v.) administration: no effect; also recorded: did not affect food intake
[5]; i.c.v. SR141716A 10 μg, i.c.v. vehicle 16.6±3.1
  rearing frequency in the open field: 4.9±1.1 number of events per 5 min
[5]; i.p. SR141716A 3 mg/kg, i.p. vehicle 17.9±2.3
  rearing frequency in the open field: 9.4±2.0 number of events per 5 min
[5]; irrespective of the administration route
  exploratory behavior in the open field: reduced exploratory behavior

## CCN[C@@H](C)Cc1cccc(C(F)(F)F)c1 [d-fenfluramine]
[6]
  food intake after vagotomy or capsaicin treatment: not
[1]
  feeding in PPARα-deficient mice: responded normally

## CCCCC/C=C\C/C=C\C/C=C\C/C=C\CCCC(=O)NCCO [anandamide, arachidonylethanolamide]
[3]
  effect of capsaicin treatment on the drug's feeding response: loss of the hyperphagic effects
[7]
  food intake (hypophagia): no effect
[4]
  food intake in partially satiated rats, systemic (i.p.) administration: significant and prolonged hyperphagia
  food intake in 24 h food-deprived rats, systemic (i.p.) administration: no effect
  food intake after central (i.c.v.) administration: no effect on feeding
[4]; listed as Anandamide
  food intake in partially satiated rats, systemic (i.p.) administration: elicited hyperphagia
  food intake after central (i.c.v.) administration: no effect
[8]
  mimicry of the OEA effect on skeletal muscle fatty acid oxidation: not
[9]
  PPARα activation: ineffective
[10]
  motor effect at the highest central dose: motor impairment

## CCCCCCCCCCCCCCCCCC(=O)NCCO [stearylethanolamide]
[9]
  PPARα activation: did not elicit a response

## Cc1cccc(Nc2cc(Cl)nc(SCC(=O)O)n2)c1C [Wy-14643]
[6]; capsaicin-treated rats
  food intake 30 min: 2.2 ± 1.2
  food intake 60 min: 3.7 ± 1.6
  food intake 120 min: 4.9 ± 1.5
  food intake 240 min: 7.8 ± 1.9
[6]; control rats
  food intake 30 min: 2.3 ± 1.3
  food intake 60 min: 3.6 ± 1.2
  food intake 120 min: 5.8 ± 1.3
  food intake 240 min: 6.4 ± 1.8
[6]
  food intake after vagotomy or capsaicin treatment: prevented the hypophagic effects
[1]
  meal pattern analysis (eating latency, meal size, post-meal interval): selective prolongation of eating latency
  feeding in PPARα-deficient mice: did not respond
  food intake in C57BL/6J mice: inhibited food intake
[11]
  expression of PPAR-α-regulated genes (PPAR-α, FAT/CD36, FATP1): mimicked the effects of OEA
[11]; jejunum, OEA 10, Wy-14643 30 mg kg^−1 i.p.
  gene expression in mice deficient in PPAR-α: did not stimulate gene expression
[12]
  iNOS expression: significantly decreased

## CCCCCCCCCCCCCC(=O)NCCO [myristylethanolamide]
[9]
  PPARα activation: ineffective

## Cc1cc(SCc2sc(-c3ccc(C(F)(F)F)cc3)nc2C)ccc1OCC(=O)O [GW501516, [2-Methyl-4-[4-methyl-2-(4-trifluoromethyl-phenyl)-thiazol-5-ylmethylsulfanyl]-phenoxy}-acetic acid]
[1]
  food intake in C57BL/6J mice: did not affect feeding; also recorded: Lack of effect

## CCCCCCCC/C=C\CCCCCCCC(=O)O [oleic acid]
[7]
  food intake (hypophagia): no effect
[8]
  mimicry of the OEA effect on skeletal muscle fatty acid oxidation: not
[9]
  EC50: 10.3 ± 0.21 µM
[11]
  expression of PPAR-α-regulated genes (PPAR-α, FAT/CD36, FATP1): not
[12]
  iNOS expression: ineffective

## CC(C)(Sc1ccc(CCN(CCCCC2CCCCC2)C(=O)NC2CCCCC2)cc1)C(=O)O [GW7647, 2-(4-{2-[3-Cyclohexyl-1-(4-cyclohexyl-butyl)-ureido]-ethyl}-phenylsulfanyl)-2-methyl-propionic acid]
[1]
  meal pattern analysis (eating latency, meal size, post-meal interval): selective prolongation of eating latency
  food intake in C57BL/6J mice: inhibited food intake

## Cc1c(C(=O)c2cccc3ccccc23)c2cccc3c2n1[C@H](CN1CCOCC1)CO3 [WIN 55,212-2]
[3]
  effect of capsaicin treatment on the drug's feeding response: loss of the hyperphagic effects; also recorded: did not produce hyperphagia
[4]; 10 μg i.c.v.
  motor effect at the highest central dose: motor impairment
[4]; 10 mg/kg i.p.
  immobility: profound immobility
[4]
  food intake in partially satiated rats, systemic (i.p.) administration: significant and prolonged hyperphagia; also recorded: promoted hyperphagia
  food intake in 24 h food-deprived rats, systemic (i.p.) administration: no effect
  food intake after central (i.c.v.) administration: no effect on feeding

## O=c1ccc2[nH]cc(C3=CCNCC3)c2[nH]1 [CP-93129]
[2]
  feeding response in capsaicin-treated rats: responded normally
[3]
  effect of capsaicin treatment on the drug's feeding response: not

## CCCCCCCCCCCCCCCC(=O)NCCO [Palmitoylethanolamide, palmitoylethanolamide]
[7]
  food intake (hypophagia): active but significantly less potent than OEA
[8]
  mimicry of the OEA effect on skeletal muscle fatty acid oxidation: only partially
